# Patent US5135955A, “Propanamine derivatives” (Eli Lilly and Company, priority 1989, dated 1992)
# Where a name gives a salt, the structure may show the parent alone.
# Tests used:
# [1] = system: Trichophyton mentagrophytes CDC27; assay: in vitro antifungal activity, Trichophyton mentagrophytes (MIC); type: cell-based; details: 35° C., 48 hours, RPMI 1640 plus 10% fetal calf serum, 95-100% inhibition of growth; for MIC: read-out: minimum inhibitory concentration (MIC), T.m.
# Description: (§1) The antifungal activity was assayed in vitro against Candida abicans A26, Trichophyton mentagrophytes CDC27, and Aspergillus flavus M152. The inocula, previously frozen under liquid nitrogen in a lactose, glycerol and water solution, were standardized by counting spores with a hemocytometer. Final concentrations (C. albicans, 1×10^5 cells/m; T. mentagrophytes, 1×10^6 cells/ml; A. flavus, 1×10^5 cells/ml) in RPMI 1640 plus 10% fetal calf serum were added to each of the 96 wells of a microtiter plate (100 μl/well).The compounds to be tested were solubilized in either water or ethanol and added to the microtiter wells in serial dilutions to give final concentrations in the range 0.039-20 μg/ml. The plates were incubated at 35° C. for 48 hours. The minimum inhibitory concentration (MIC) values were determined as the highest dilution showing 95-100% inhibition of growth.
# (§2) ^a Minimum inhibitory concentration expressed in μg/ml
# ^d T.m. means Trichophyton mentagrophytes CDC27
# [2] = system: Candida albicans A26; assay: in vitro antifungal activity, Candida albicans (MIC); type: cell-based; details: 35° C., 48 hours, RPMI 1640 plus 10% fetal calf serum, 95-100% inhibition of growth; for MIC: read-out: minimum inhibitory concentration (MIC), C.a.
# Description: as §1, §2
# ^b C.a. means Candida albicans A26
# [3] = system: Aspergillus flavus M152; assay: in vitro antifungal activity, Aspergillus flavus (MIC); type: cell-based; details: 35° C., 48 hours, RPMI 1640 plus 10% fetal calf serum, 95-100% inhibition of growth; for MIC: read-out: minimum inhibitory concentration (MIC), A.f.
# Description: as §1, §2
# ^c A.f. means Aspergillus flavus M152
# [4] = system: thromboplastin clotting time in human plasma; assay: prothrombin time test (thromboplastin clotting time in human plasma); type: biochemical; details: 37° C., human plasma
# Description: Briefly, to 0.1 ml of each of human plasma, normal saline and thromboplastin was added 0.03 ml of the test compound of the present invention (2 mg/ml in 50 percent methanol). The clotting time was measured at 37° C. with a Fibrometer.
# ^a Expressed in seconds
# ^b Concentration of compound tested in micrograms per milliliter of […]
# [5] = 180 micrograms per milliliter of plasma
# [6] = 45 micrograms per milliliter of plasma
# [7] = 90 micrograms per milliliter of plasma
Compound,MIC [1] [µg/mL],MIC [2] [µg/mL],MIC [3] [µg/mL],"plasma prothrombin time [4, 5] [s]",further results
"CCCCOc1ccc(CCC(C)N(C)CC)cc1 (stereo not drawn) [Example 68, 4-Butoxy-N-ethyl-N,α-dimethylbenzenepropanamine hydrochloride]",1.25,0.625,0.625,–,–
"CC(CCc1ccc(OC2CCCC2)cc1)NCCN1CCOCC1 (centres unmarked) [Example 47, N-[3-[4-(Cyclopentyloxy)phenyl]-1-methylpropyl]-4-morpholineethanamine dihydrochloride]",20,10,10,–,–
"CCCCCCOc1ccc(CC(c2ccc(OC)cc2)C(C)N)cc1 (stereo not drawn) [Example 72, 4-(Hexyloxy)-β-4-methoxyphenyl-αmethylbenzenepropanamine hydrochloride]",5,10,10,–,–
"Cl.NCC(Cc1cccc2ccccc12)c1ccccc1 (stereo not drawn) [Example 22, β-Phenyl-1-naphthalenepropanamine hydrochloride]",10,20,10,> 300,–
"CCCCCCOc1ccc(CC(CN)c2ccccc2)cc1 (stereo not drawn) [Example 1, 4-(Hexyloxy)-β-phenylbenzenepropanamine]",10,10,10,> 300,"plasma prothrombin time ([4]; 11 micrograms per milliliter of plasma): 32 s; plasma prothrombin time ([4]; 22 micrograms per milliliter of plasma): 43 s; plasma prothrombin time [4, 6]: 91 s; plasma prothrombin time [4, 7]: > 300 s"
"COc1ccc(CC(c2ccccc2)C(C)N)cc1OCC1CCCCC1 (stereo not drawn) [Example 71, 3-(Cyclohexylmethoxy)-4-methoxy-α-methyl-β-phenylbenzenepropanamine hydrochloride]",10,20,10,–,–
"CSCCOc1ccc(CCC(C)N(C)C)cc1 (stereo not drawn) [Example 57, 4-(2-Methylthioethoxy)-N,N,α-trimethylbenzenepropanamine hydrochloride]",0.312,1.25,20,–,–
"CC(CCc1ccc(OCCCC#N)cc1)N(C)C (centres unmarked) [Example 59, 4-8 4-[3-(Dimethylamino)butyl]phenoxy]butanenitrile hydrochloride]",20,2.5,20,–,–
"CC(CCc1ccc(OCc2cccc(F)c2)cc1)N(C)C (stereo not drawn) [Example 63, N,N,α-Trimethyl-4-[(3-fluorophenyl)methoxy]benzenepropanamine hydrochloride]",1.25,0.625,5,–,–
"CC(CCc1ccc(OCc2ccc(C(F)(F)F)cc2)cc1)N(C)C (stereo not drawn) [Example 65, N,N,α-Trimethyl-4-[[4-(trifluoromethyl)phenyl]methoxy]-benzenepropanamine hydrochloride]",5,20,10,–,–
"CC(CCc1ccc(OCCC2CCCCC2)cc1)NCCN(C)C (centres unmarked) [Example 46, N'-[3-[4-(2-Cyclohexylethoxy)phenyl]-1-methylpropyl]-N,N-dimethyl-1,2-ethanediamine dihydrochloride]",10,10,20,–,–
CCCS(=O)(=O)Oc1ccc(CCC(C)N(C)C)cc1 (centres unmarked) [Example 67],> 20,20,20,–,–
"CC(CCc1ccc(OCCn2cncn2)cc1)N(C)C (stereo not drawn) [Example 62, N,N,α-Trimethyl-4-[2-(1H-1,2,4-triazol-1-yl)ethoxy]benzenepropanamine]",10,10,20,–,–
"CC(CCc1ccc(OCCn2ccnc2)cc1)N(C)C (stereo not drawn) [Example 61, N,N,α-Trimethyl-4-[2-(1H-imidazol-1-yl)ethoxy]benzenepropanamine]",10,5,> 20,–,–
"CC(CCc1ccc(OCC(=O)C(C)(C)C)cc1)N(C)C (centres unmarked) [Example 60, 3,3-Dimethyl-1-[4-[3-(dimethylamino)-1-butyl]phenoxy]-2-butenone hydrochloride]",0.625,10,10,–,–
"CCCCOc1ccc(CCC(C)N2CC(C)OC(C)C2)cc1 (centres unmarked) [Example 69, 4-[3-(4-Butoxyphenyl)-1-methylpropyl]-2,6-dimethylmorpholine hydrochloride]",1.25,> 20,> 20,–,–

Compound,MIC [1] [µg/mL],MIC [2] [µg/mL],MIC [3] [µg/mL],"plasma prothrombin time [4, 5] [s]",further results
"4-(2-Butenyloxy)-N,N,α-trimethylbenzenepropanamine hydrochloride [Example 56]",–,–,–,–,"minimum inhibitory concentration (MIC), T.m. [1]: 0.312 µg/mL; minimum inhibitory concentration (MIC), C.a. [2]: 0.625 µg/mL; minimum inhibitory concentration (MIC), A.f. [3]: 5 µg/mL"
"CCCCOc1ccc(CCC(CC)N(C)C)cc1 (stereo not drawn) [Example 70, 4-Butoxy-α-ethyl-N,N-dimethylbenzenepropanamine hydrochloride]",0.156,0.156,10,–,–
"CCCCCCOc1ccc(CC(CN)c2ccc3ccccc3c2)cc1.Cl (stereo not drawn) [Example 10, β-[[4-(Hexyloxy)phenyl]methyl]-2-naphthaleneethanamine hydrochloride]",–,–,–,60,–
"CC(CCc1ccc(OCCN(C)C)cc1)N(C)C (stereo not drawn) [Example 58, 4-[2-(Dimethylamino)ethoxy]-N,N,α-trimethylbenzenepropylamine dihydrochloride]",10,1.25,20,–,–
"Cl.NCC(Cc1ccc2c(c1)OCO2)c1ccc(-c2ccccc2)cc1 (stereo not drawn) [Example 32, β-[1,1'-Biphenyl]-4-yl-1,3-benzodioxole-5-propanamine hydrochloride]",–,–,–,222,"plasma prothrombin time [4, 6]: 27 s; plasma prothrombin time [4, 7]: 66 s"
"CCCCCOc1ccc(CC(CN)c2ccc(OC)c(OC)c2)cc1 (stereo not drawn) [Example 15, 4-(Pentyloxy)-β-3,4-(dimethoxy)phenylbenzenepropanamine]",–,–,–,80,"plasma prothrombin time [4, 6]: 21 s; plasma prothrombin time [4, 7]: 30 s"
"CC(CCc1ccc(OS(=O)(=O)c2ccccc2)cc1)N(C)C (centres unmarked) [Example 66, Benzenesulfonic acid 4-[3-(dimethylamino)butyl]phenylester]",5,10,20,–,–
"CC(CCc1ccc(OCCC(C)(C)C)cc1)N(C)C.Cl (centres unmarked) [Example 75, 4-(3,3-Dimethylbutoxy)-N,N,αtrimethylbenzenepropanamine hydrochloride]",–,–,–,90,"plasma prothrombin time ([4]; 11 micrograms per milliliter of plasma, hydrochloride): 18 s; plasma prothrombin time ([4]; 22 micrograms per milliliter of plasma, hydrochloride): 23 s; plasma prothrombin time ([4]; 45 micrograms per milliliter of plasma, hydrochloride): 32 s; plasma prothrombin time ([4]; 90 micrograms per milliliter of plasma, hydrochloride): 52 s"
"CC(CCc1ccc(OCC2CCCC2)cc1)N(C)C (stereo not drawn) [Example 81, 4-Cyclopentylmethoxy-N,N-α-trimethylbenzenepropanamine]",–,–,–,47,"plasma prothrombin time [4, 6]: 20 s; plasma prothrombin time [4, 7]: 25 s"
"CC(CCc1ccc(OCc2ccccc2)cc1)N(C)C (stereo not drawn) [Example 84, N,N,α-Trimethyl-4-(phenylmethoxy)benzene propanamine hydrochloride]",0.312,0.156,10,–,–
"CCCCCCOc1ccc(CC(CNC)c2ccccc2)cc1 (stereo not drawn) [Example 29, N-Methyl-4-(hexyloxy)-β-phenylbenzenepropanamine]",–,–,–,87,"plasma prothrombin time [4, 6]: 17 s; plasma prothrombin time [4, 7]: 31 s"
"CCCCCCCCCCCCOc1ccc(CCC(C)NCCN(C)C)cc1 (centres unmarked) [Example 52, N'-[3-[4-(Dodecyloxy)phenyl]-1-methylpropyl]-N,N-dimethyl-1,2-ethanediaminedihydrochloride]",–,–,–,87,"plasma prothrombin time [4, 7]: 20 s"
"CC(CCc1ccc(OCc2ccc(Cl)cc2Cl)cc1)N(C)C (stereo not drawn) [Example 64, N,N,α-Trimethyl-4-(2,4-dichlorophenyl)methoxy]benzenepropanamine hydrochloride]",5,20,5,–,–
"COc1ccc(C(CN)Cc2ccc(-c3ccccc3)cc2)cc1OC (stereo not drawn) [Example 8, β-(3,4-Dimethoxy)phenyl[1,1'-biphenyl]-4-propanamine hydrochloride]",–,–,–,130,"plasma prothrombin time [4, 6]: 23 s; plasma prothrombin time [4, 7]: 45 s"
"CCCCCOc1ccc(CC(CN)c2ccc(-c3ccccc3)cc2)cc1.Cl (stereo not drawn) [Example 12, β-[[4-(Pentyloxy)phenyl]methyl][1,1'-biphenyl]-4-ethanamine hydrochloride]",–,–,–,75,"plasma prothrombin time [4, 6]: 21 s; plasma prothrombin time [4, 7]: 33 s"
